Patent US12343336B2, “Increasing cancer cells' sensitivity to tumor treating fields (TTFields) by inhibiting IL11 activity” (Novocure GmbH, priority 2019, dated 2025)

Experiments:
[1] = tested on: N1S1 tumors; test: Fibrosis evaluation (score and Masson Trichrome morphometry) of treated N1S1 tumors; assay type: in vivo, SD rats
Protocol: (§1) Male SD rats, 8-weeks of age (Envigo Ltd, Israel), were anesthetized by I.P. injection of Ketamine (75 mg/kg) and Xylazine (10 mg/kg)(FIG. 2). After loss of postural reflexes, the fur was removed from the upper abdominal area using a trimmer. The left lobe of the liver was surgically exposed and 10 μl of cell suspension containing 50,000 N1-S1 hepatocellular carcinoma cells in equal volumes of serum free medium and Matrigel (CORNING, Bedford, MA) were injected directly into the left lobe using a syringe with a 31-gauge needle. The peritoneum and abdominal muscles incisions were closed using surgical sutures and the skin were close by clips. The rats were allowed to recover for 6 days.
(§2) On day 6 all animals underwent a first MRI scan and were randomly divided into the following treatment groups:
(§3) Group I—rats were treated with sham heating electrodes and vehicle injection.
(§4) Group II—rats were treated with 150 kHz TTFields and vehicle injection.
Group III—rats were treated with 10 mg/kg/day Sorafenib. […]
(§5) On day 7, electrodes (TTFields or sham heating) were placed on the animals. […] Tumor volume were determined based on MRI scans on days […] after tumor implantation. […] Tumor volume was measured by manual segmentation of the tumor using ITK-SNAP version 3.6.0-rc1 free software. […]
Tumors were harvested for histological evaluation of the grade of fibrosis using a semi-quantitative evaluation scale. […] Masson Trichrome stained sections were analyzed for fibrosis, using a scoring grade scale and digital morphometry.
H&E stained sections were examined by one pathologist and scored by a semi-quantitative scoring system for the presence of pathological changes (FIGS. 3 and 3A), as follows: • Grade 0: no signs of fibrosis • Grade 1: very mild signs of fibrosis • Grade 2: mild signs of fibrosis • Grade 3: moderate signs of fibrosis • Grade 4: High grade of fibrosis • Grade 5: Very high grade of fibrosis […]
The percent of the stained areas (FIG. 3: top-right) out of the whole tissue (FIG. 3: top-right+bottom-left) was calculated as shown in FIG. 4.

[2] = tested on: N1S1 liver carcinoma cells; test: N1S1 tumor volume by MRI in rats treated with TTFields and/or sorafenib; assay type: in vivo, Sprague Dawley rats
Protocol: Tumor volume was determined by MRI. […] In this experiment, the volume of the tumor was measured using MRI on day 6 (one day before treatment start) and day 14 (one day after the end of treatment); and each data point in FIG. 1A represents the volume of the tumor on day 14 divided by the volume of the tumor on day 6. Thus, numbers greater than 1 represent growth in the tumor volume, and numbers smaller than 1 represent a tumor that has shrunk between day 6 and day 14. In this figure, “*” represents p<0.1, “**” represents p<0.01, and “****” represents p<0.0001. […] FIG. 1B represents the volume of the tumor.
as §1, §2, §3, §4
Group III—rats were treated with 10 mg/kg/day Sorafenib.
Group IV—rats were treated with 150 kHz TTFields and 10 mg/kg/day Sorafenib.
as §5, with “animals. The animals were treated for 6 days with TTFields or sham heat.” for “animals.”

## CNC(=O)c1cc(Oc2ccc(NC(=O)Nc3ccc(Cl)c(C(F)(F)F)c3)cc2)ccn1 [sorafenib]
[1]; TTFields in combination with sorafenib, relative to TTFields alone, evaluated by a pathologist
  fibrosis score: significantly reduced
[1]; combined treatment of 150 kHz TTFields and sorafenib 10 mg/kg/day
  reduction in fibrotic area compared to control group: 20.8%
[1]; sorafenib alone, 10 mg/kg/day, morphometry of fibrosis percent
  decrease in fibrotic area relative to control: 30.4%
[2]; combination of TTFields (2.86 V/cm) and sorafenib (10 mg/kg/day)
  tumor volume: synergistic decrease
[2]; combination of TTFields and sorafenib, N1S1 tumors, FIG. 1
  decrease in tumor volume: ≥ 10 fold
[2]; combination of TTFields at 150 kHz and sorafenib 10 mg/kg/day IP, MRI
  fold increase in tumor volume (day 14 / day 6): significantly reduced
